According to US20040067218A1, “Extramedullary adipose tissue cells and use thereof for regenerating hematopoietic and muscular tissue” (priority 2001, published 2004):

Columns and labels:
[1] = tested on: muscarinic acetylcholine receptors; assay: Spontaneous contractile activity of cardiomyocytes differentiated from vascular stroma cells (muscarinic agents); assay type: cell-based, mouse; details: untreated = 100%
Protocol: (§1) Cells of the vascular stroma, isolated as described in Example 1.2, are cultured in the methylcellulose-based semi-solid medium as defined above (Example 1.8).
(§2) The cardiomyocytes are also detected by their spontaneous contractile activity in the presence or absence of agonists or antagonists of muscarinic acetylcholine receptors (carbamylcholine and atropine, respectively) or β-adrenergic receptors (isoproterenol and propranolol, respectively).
(§3) More precisely, 1 ml of DMEM medium containing carbamylcholine (2 μM), atropine (10 μM), isoproterenol (10 μM) or propranolol (40 μM) is added to the methyl-cellulose-based medium. After incubation for 5 min, necessary for diffusion of the molecules, the excess buffer is removed and the cell contractions are counted under the microscope for one minute.
(§4) The values correspond to the mean of 3 independent measurements.

β-adrenergic receptors = assay: Spontaneous contractile activity of cardiomyocytes differentiated from vascular stroma cells (β-adrenergic agents); assay type: cell-based, mouse; details: untreated = 100%
Protocol: as §1, §2, §3, §4

CN1[C@@H]2CC[C@H]1C[C@@H](OC(=O)C(CO)c1ccccc1)C2 (stereo partly shown) [Atropine, atropine]
Contractions ([1]; atropine (10 μM) added with carbamylcholine (2 μM), mean of 3): 106%

C[N+](C)(C)CCOC(N)=O.[Cl-] [Carbamylcholine, carbamylcholine]
Contractions ([1]; carbamylcholine (2 μM) alone, mean of 3 independent measurements): 53%

CC(C)NCC(O)c1ccc(O)c(O)c1 (stereo not shown) [Isoproterenol, isoproterenol]
Contractions (β-adrenergic receptors; isoproterenol (10 μM) alone, mean of 3 independent measurements): 160%

CC(C)NCC(O)COc1cccc2ccccc12 (stereo not shown) [Propranolol, propranolol]
Contractions (β-adrenergic receptors; propranolol (40 μM) added with isoproterenol (10 μM), mean of 3): 100%
